The values below come from the supplement of paper PMC10307832.

One experiment relates to 201T. The experiment in a line: relative viability (nuclei count vs DMSO), 5 days (fraction); higher = more cells survive. Particulars: first compound 0.8 µM. A digest of the protocol: (§1)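 Relative viability equals treated-well nuclei counts divided by vehicle-well nuclei counts. Counts came from 4× images of lung cancer cell lines grown in 1536-well plates for 5 days after pin-tool dosing on the day after seeding. Dosing used one drug alone or a fixed anchor-drug dose plus five library-drug doses (not always all listed) in √10 steps, and values are medians of duplicate plates.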
Consider `CCCCCCCCCCCC1=C(O)C(=O)C=C(O)C1=O` [Embelin] + COc1cccc2cc(-c3nc([C@H]4CC[C@H](C(=O)O)CC4)n4ncnc(N)c34)[nH]c12 [OSI-027] (partner 0.5 µM), for which the relative viability was 0.883.

In turn, `CCCCCCCCCCCC1=C(O)C(=O)C=C(O)C1=O` [Embelin] + Nc1nc2[nH]cc(CCc3ccc(C(=O)N[C@@H](CCC(=O)O)C(=O)O)cc3)c2c(=O)[nH]1 [Pemetrexed] (partner 0.2 µM) yielded a relative viability of 0.326.

The same experiment, now with this note: first compound 2.53 µM.
Turning to `CCCCCCCCCCCC1=C(O)C(=O)C=C(O)C1=O` [Embelin] + CCNC(=O)c1noc(-c2cc(C(C)C)c(O)cc2O)c1-c1ccc(CN2CCOCC2)cc1 [Luminespib] (partner 0.01 µM), the relative viability came out at 1.06.

On to `CCCCCCCCCCCC1=C(O)C(=O)C=C(O)C1=O` [Embelin] + Cc1nc(Nc2ncc(C(=O)Nc3c(C)cccc3Cl)s2)cc(N2CCN(CCO)CC2)n1 [Dasatinib] (partner 0.075 µM), for which the relative viability is 0.519.

Compound `CCCCCCCCCCCC1=C(O)C(=O)C=C(O)C1=O` [Embelin] + CC(=O)c1c(C)c2cnc(Nc3ccc(N4CCNCC4)cn3)nc2n(C2CCCC2)c1=O [Palbociclib] (partner 0.5 µM) registered a relative viability of 0.391.

In turn, `CCCCCCCCCCCC1=C(O)C(=O)C=C(O)C1=O` [Embelin] + COc1cccc2cc(-c3nc([C@H]4CC[C@H](C(=O)O)CC4)n4ncnc(N)c34)[nH]c12 [OSI-027] (partner 0.5 µM) returned a relative viability of 0.746.

`CCCCCCCCCCCC1=C(O)C(=O)C=C(O)C1=O` [Embelin] + Nc1nc2[nH]cc(CCc3ccc(C(=O)N[C@@H](CCC(=O)O)C(=O)O)cc3)c2c(=O)[nH]1 [Pemetrexed] (partner 0.2 µM) returned a relative viability of 0.333.

The same experiment, now with this note: first compound 8 µM.
The compound `CCCCCCCCCCCC1=C(O)C(=O)C=C(O)C1=O` [Embelin] + CCNC(=O)c1noc(-c2cc(C(C)C)c(O)cc2O)c1-c1ccc(CN2CCOCC2)cc1 [Luminespib] (partner 0.01 µM) gave a relative viability of 1.09.

As to `CCCCCCCCCCCC1=C(O)C(=O)C=C(O)C1=O` [Embelin] + Cc1nc(Nc2ncc(C(=O)Nc3c(C)cccc3Cl)s2)cc(N2CCN(CCO)CC2)n1 [Dasatinib] (partner 0.075 µM), the relative viability turned out to be 0.613.

Turning to `CCCCCCCCCCCC1=C(O)C(=O)C=C(O)C1=O` [Embelin] + CC(=O)c1c(C)c2cnc(Nc3ccc(N4CCNCC4)cn3)nc2n(C2CCCC2)c1=O [Palbociclib] (partner 0.5 µM), the relative viability was found to be 0.353.

`CCCCCCCCCCCC1=C(O)C(=O)C=C(O)C1=O` [Embelin] + COc1cccc2cc(-c3nc([C@H]4CC[C@H](C(=O)O)CC4)n4ncnc(N)c34)[nH]c12 [OSI-027] (partner 0.5 µM) returned a relative viability of 0.83.

`CCCCCCCCCCCC1=C(O)C(=O)C=C(O)C1=O` [Embelin] + Nc1nc2[nH]cc(CCc3ccc(C(=O)N[C@@H](CCC(=O)O)C(=O)O)cc3)c2c(=O)[nH]1 [Pemetrexed] (partner 0.2 µM) had a relative viability of 0.299.

Another experiment has as its system LU99A. The description is as above. Particulars: first compound 0.08 µM. A digest of the protocol:
as §1
For `CCCCCCCCCCCC1=C(O)C(=O)C=C(O)C1=O` [Embelin] + CCNC(=O)c1noc(-c2cc(C(C)C)c(O)cc2O)c1-c1ccc(CN2CCOCC2)cc1 [Luminespib] (partner 0.01 µM), the relative viability came out at 0.273.

Turning to `CCCCCCCCCCCC1=C(O)C(=O)C=C(O)C1=O` [Embelin] + Cc1nc(Nc2ncc(C(=O)Nc3c(C)cccc3Cl)s2)cc(N2CCN(CCO)CC2)n1 [Dasatinib] (partner 0.075 µM), the relative viability is 0.572.

`CCCCCCCCCCCC1=C(O)C(=O)C=C(O)C1=O` [Embelin] + CC(=O)c1c(C)c2cnc(Nc3ccc(N4CCNCC4)cn3)nc2n(C2CCCC2)c1=O [Palbociclib] (partner 0.5 µM): the relative viability is 0.471.

With `CCCCCCCCCCCC1=C(O)C(=O)C=C(O)C1=O` [Embelin] + COc1cccc2cc(-c3nc([C@H]4CC[C@H](C(=O)O)CC4)n4ncnc(N)c34)[nH]c12 [OSI-027] (partner 0.5 µM), the relative viability amounted to 0.323.

`CCCCCCCCCCCC1=C(O)C(=O)C=C(O)C1=O` [Embelin] + Nc1nc2[nH]cc(CCc3ccc(C(=O)N[C@@H](CCC(=O)O)C(=O)O)cc3)c2c(=O)[nH]1 [Pemetrexed] (partner 0.2 µM): the relative viability amounted to 0.182.

The experiment is the same for the next values; noted with them: first compound 0.8 µM.
As for `CCCCCCCCCCCC1=C(O)C(=O)C=C(O)C1=O` [Embelin] + CCNC(=O)c1noc(-c2cc(C(C)C)c(O)cc2O)c1-c1ccc(CN2CCOCC2)cc1 [Luminespib] (partner 0.01 µM), the relative viability is 0.275.

Compound `CCCCCCCCCCCC1=C(O)C(=O)C=C(O)C1=O` [Embelin] + Cc1nc(Nc2ncc(C(=O)Nc3c(C)cccc3Cl)s2)cc(N2CCN(CCO)CC2)n1 [Dasatinib] (partner 0.075 µM) displayed a relative viability of 0.759.

Regarding `CCCCCCCCCCCC1=C(O)C(=O)C=C(O)C1=O` [Embelin] + CC(=O)c1c(C)c2cnc(Nc3ccc(N4CCNCC4)cn3)nc2n(C2CCCC2)c1=O [Palbociclib] (partner 0.5 µM), the relative viability amounted to 0.411.

As for `CCCCCCCCCCCC1=C(O)C(=O)C=C(O)C1=O` [Embelin] + COc1cccc2cc(-c3nc([C@H]4CC[C@H](C(=O)O)CC4)n4ncnc(N)c34)[nH]c12 [OSI-027] (partner 0.5 µM), the relative viability came to 0.358.

The compound `CCCCCCCCCCCC1=C(O)C(=O)C=C(O)C1=O` [Embelin] + Nc1nc2[nH]cc(CCc3ccc(C(=O)N[C@@H](CCC(=O)O)C(=O)O)cc3)c2c(=O)[nH]1 [Pemetrexed] (partner 0.2 µM) displayed a relative viability of 0.178.

Staying with this experiment, now noted: first compound 2.53 µM.
Take `CCCCCCCCCCCC1=C(O)C(=O)C=C(O)C1=O` [Embelin] + CCNC(=O)c1noc(-c2cc(C(C)C)c(O)cc2O)c1-c1ccc(CN2CCOCC2)cc1 [Luminespib] (partner 0.01 µM): the relative viability amounted to 0.28.

Turning to `CCCCCCCCCCCC1=C(O)C(=O)C=C(O)C1=O` [Embelin] + Cc1nc(Nc2ncc(C(=O)Nc3c(C)cccc3Cl)s2)cc(N2CCN(CCO)CC2)n1 [Dasatinib] (partner 0.075 µM), the relative viability was 0.643.

Take `CCCCCCCCCCCC1=C(O)C(=O)C=C(O)C1=O` [Embelin] + CC(=O)c1c(C)c2cnc(Nc3ccc(N4CCNCC4)cn3)nc2n(C2CCCC2)c1=O [Palbociclib] (partner 0.5 µM): the relative viability came out at 0.394.

`CCCCCCCCCCCC1=C(O)C(=O)C=C(O)C1=O` [Embelin] + COc1cccc2cc(-c3nc([C@H]4CC[C@H](C(=O)O)CC4)n4ncnc(N)c34)[nH]c12 [OSI-027] (partner 0.5 µM): the relative viability amounted to 0.27.

`CCCCCCCCCCCC1=C(O)C(=O)C=C(O)C1=O` [Embelin] + Nc1nc2[nH]cc(CCc3ccc(C(=O)N[C@@H](CCC(=O)O)C(=O)O)cc3)c2c(=O)[nH]1 [Pemetrexed] (partner 0.2 µM) came in with a relative viability of 0.15.

Staying with this experiment, now noted: first compound 8 µM.
`CCCCCCCCCCCC1=C(O)C(=O)C=C(O)C1=O` [Embelin] + CCNC(=O)c1noc(-c2cc(C(C)C)c(O)cc2O)c1-c1ccc(CN2CCOCC2)cc1 [Luminespib] (partner 0.01 µM): the relative viability is 0.279.

Turning to `CCCCCCCCCCCC1=C(O)C(=O)C=C(O)C1=O` [Embelin] + Cc1nc(Nc2ncc(C(=O)Nc3c(C)cccc3Cl)s2)cc(N2CCN(CCO)CC2)n1 [Dasatinib] (partner 0.075 µM), the relative viability was 0.515.

Consider `CCCCCCCCCCCC1=C(O)C(=O)C=C(O)C1=O` [Embelin] + CC(=O)c1c(C)c2cnc(Nc3ccc(N4CCNCC4)cn3)nc2n(C2CCCC2)c1=O [Palbociclib] (partner 0.5 µM), for which the relative viability worked out at 0.374.

`CCCCCCCCCCCC1=C(O)C(=O)C=C(O)C1=O` [Embelin] + COc1cccc2cc(-c3nc([C@H]4CC[C@H](C(=O)O)CC4)n4ncnc(N)c34)[nH]c12 [OSI-027] (partner 0.5 µM) displayed a relative viability of 0.282.

`CCCCCCCCCCCC1=C(O)C(=O)C=C(O)C1=O` [Embelin] + Nc1nc2[nH]cc(CCc3ccc(C(=O)N[C@@H](CCC(=O)O)C(=O)O)cc3)c2c(=O)[nH]1 [Pemetrexed] (partner 0.2 µM): the relative viability was found to be 0.192.
